# In patent US20170119806A1, “[…] LACTONE DERIVATIVES AND METHODS OF MAKING AND USING THEREOF” (OHIO STATE INNOVATION FOUNDATION, priority 2014, published 2017):
# Entries after “also recorded” stand apart in the source; their conditions may differ.
# Tests used:
# [1] = tested on: HT-29 human colon cancer cells; test: Cytotoxicity against HT-29 cells
# Experimental: The cytotoxicity of the test compounds was screened against HT-29 cells by a previously reported procedure (Ren Y et al. J. Nat. Prod 2011, 74, 1117-1125). Paclitaxel and etoposide were used as positive controls.
# All arylnaphthalene lignans isolated from P. poilanet in the present study and their semi-synthetic analogues were evaluated for their cytotoxicity against HT-29 human colon cancer cells, using paclitaxel as the positive control (Table 6) (Ren Y et al. J. Nat. Prod 2011, 74, 1117-1125).
# [2] = Solubility in aqueous solutions; format: physicochemical
# topo IIα = topo IIα (Homo sapiens, UniProt P11388); test: Topoisomerase II assay (DNA cleavage/relaxation); format: biochemical; conditions: 100 μM test compound
# Source text: The formation of linear DNA was detected by separating the SDS-treated reaction products using ethidium bromide gel electrophoresis and quantified by accounting for the relationship between fluorescence and relative band intensity for open circular (OC), linear (LNR), supercoiled (SC), and relaxed (RLX) configurations of DNA.
# Topoisomerase II Assay. […] The formation of linear DNA was detected by separating the SDS-treated reaction products using ethidium bromide gel electrophoresis by a modification of a previously described procedure (Hasinoff B B et al. Mol. Pharmacol. 2005, 67, 937-947). In this system, topo II-mediated catalytic conversion of supercoiled pBR322 DNA to the “relaxed” form of plasmic' DNA can also be observed. A 20 μL cleavage assay reaction mixture contained 250 ng topo IIα protein, 160 ng pBR322 plasmid DNA (NEB, Ipswich, Mass.), 1.0 mM ATP in assay buffer (10 mM Tris-HCl (pH 7.5), 50 mM KCl, 50 mM NaCl, 0.1 mM EDTA, 5 mM MgCl2, 2.5% glycerol), and 100 μM of test compounds or DMSO solvent, as indicated. Assay buffer (17 μL) and test compound/DMSO (1 μL) were mixed and allowed to sit at room temperature for 30 min after which 2 μL of topo IIα was added to initiate the reaction. Tubes were incubated at 37° C. for 15 min, and then quenched with 1% (v/v) SDS/10 mM disodium EDTA/200 mM NaCl. The mixture was treated subsequently with 0.77 mg/mL proteinase K (Sigma) at 55° C. for 60 min to digest the protein, and DNA bands were separated by electrophoresis (18 h at 2 V/cm) on an agarose gel (1.3% w/v) containing 0.7 μg/mL ethidium bromide in TAE buffer pH 8.0 (40 mM Tris base, 0.114% (v/v) glacial acetic acid, 2 mM EDTA). The DNA in the gel was imaged by its fluorescence on a Chemi-Doc XRS+ imager (Bio-Rad, Hercules, Calif.). Linear DNA was quantified by accounting for the relationship between fluorescence and relative band intensity for open circular (QC), linear (LNR), supercoiled (SC), and RLX (relaxed) configurations of DNA (Projan S J et al. Plasmid 1983, 9, 182-190), then calculating % of LNR from the total DNA content in each lane.
# NF-κB p65 = test: Immunoblotting of p65 and p-p65 in NK cells; format: cell-based, human; conditions: 10 μM TPCK, 10 μM PL-C and IL-12, 18 h
# Experimental: (A) Purified primary human NK cells were treated with 5 and 10 μM PL-C for 18 h. The cells were harvested and lysed for immunoblotting using p65 and p-p65 Abs. β-Actin immunoblotting was included as the internal control. Data shown are for treatment with PL-C alone (top panel) or in combination with IL-12 (10 ng/mL) (middle panel) or IL-15 (100 ng/mL) (bottom panel) and are the representative plots of four donors with similar results. Numbers under each lane represent quantification of p-p65 or p65 via densitometry, after normalizing to β-actin. (B) NKL cells were treated, and data are presented as described in (A). Data from one of three independent experiments with similar results are shown. (C) Purified primary human NK (left panel) or NKL cells (right panel) were cotreated with 10 μM PL-C and IL-12 (10 ng/mL) in the presence or absence of the NF-κB inhibitor TPCK (10 μM) for 18 h. Supernatants were assayed for IFN-γ secretion by ELISA (top panel), and cells were harvested and lysed for immunoblotting of p-p65 (bottom panel). Representative data from one of three donors with the similar data (left panel) and the summary of three independent experiments with similar results (right panel) are shown. **p<0.01. Error bars represent SD.
# Immunoblotting. Immunoblotting was performed as described previously (Yu J et al. Immunity 2006, 24, 575-590; Yu J et al. Blood 2010, 115, 274-281). […]
# human primary NK cells = test: IFN-γ production by NK cells (intracellular flow cytometry, ELISA); format: cell-based; conditions: 10 μM TPCK, 10 μM PL-C and IL-12, 18 h
# Experimental: (A) Chemical structure of PL-C (phyllanthusmin C, 4), (9) Healthy donor PBMCs (left panel) or enriched NK cells (right panel) were treated with DMSO vehicle control or 10 μM PL-C for 18 h in the presence of […] (10 ng/mL) or IL-15 (100 ng/mL). The cells were harvested and analyzed by intracellular flow cytometry to determine the frequency of IFN-γ^+ cells in CD56^+CD3^− NK cells (n=8 for PBMC and n=5 for enriched NK). (C) Highly purified (≧99.5%) human primary NK cells were treated with 10 μM PL-C for 18 h to determine the levels of IFN-γ secretion by ELISA. IFN-γ secretion from treatment with PL-C alone (left panel) or in combination with IL-12 (10 ng/mL, middle panel) or IL-15 (100 ng/mL, right panel) is shown. (D) Cells were treated as described in (C) and harvested at 12 h, IFNG mRNA expression was assessed by real-time RT-PCR, and the relative IFNG mRNA expression of each treatment was normalized to untreated vehicle control in the same donor. Data are shown as mean±SEM (n=6 in each treatment; error bars represent SEM). *p<0.05, **p<0.01, which denote statistical comparison between the two marked treatment groups (B-D). (E) Highly purified (≧99,5%) primary human NK cells were treated with 10 μM. PL-C in combination with various concentrations of IL-12 (10, 1, and 0.1 ng/mL) or IL-15 (100, 10, and 1 ng/mL) for 24 h to determine the levels of IFN-γ secretion. Representative data from one of three donors with the similar data are shown. *p<0.05, **p<0.01, which denote statistical comparison between the two marked treatment groups and are calculated from data of all tested donors. Error bars represent SD. […]
# Isolation of PBMCs and NK cells. […] The purity of enriched NK cells was ≧80% assessed by flow cytometric analysis after staining with CD56-allophycocyanin and CD3-FITC Abs (BD Bio-sciences, San Jose, Calif.). […] The purity of magnetic bead-purified NK cells was ≧99.5%, as determined by the aforementioned flow cytometric analysis. […]
# topo IIα, sequence (P11388 whole entry): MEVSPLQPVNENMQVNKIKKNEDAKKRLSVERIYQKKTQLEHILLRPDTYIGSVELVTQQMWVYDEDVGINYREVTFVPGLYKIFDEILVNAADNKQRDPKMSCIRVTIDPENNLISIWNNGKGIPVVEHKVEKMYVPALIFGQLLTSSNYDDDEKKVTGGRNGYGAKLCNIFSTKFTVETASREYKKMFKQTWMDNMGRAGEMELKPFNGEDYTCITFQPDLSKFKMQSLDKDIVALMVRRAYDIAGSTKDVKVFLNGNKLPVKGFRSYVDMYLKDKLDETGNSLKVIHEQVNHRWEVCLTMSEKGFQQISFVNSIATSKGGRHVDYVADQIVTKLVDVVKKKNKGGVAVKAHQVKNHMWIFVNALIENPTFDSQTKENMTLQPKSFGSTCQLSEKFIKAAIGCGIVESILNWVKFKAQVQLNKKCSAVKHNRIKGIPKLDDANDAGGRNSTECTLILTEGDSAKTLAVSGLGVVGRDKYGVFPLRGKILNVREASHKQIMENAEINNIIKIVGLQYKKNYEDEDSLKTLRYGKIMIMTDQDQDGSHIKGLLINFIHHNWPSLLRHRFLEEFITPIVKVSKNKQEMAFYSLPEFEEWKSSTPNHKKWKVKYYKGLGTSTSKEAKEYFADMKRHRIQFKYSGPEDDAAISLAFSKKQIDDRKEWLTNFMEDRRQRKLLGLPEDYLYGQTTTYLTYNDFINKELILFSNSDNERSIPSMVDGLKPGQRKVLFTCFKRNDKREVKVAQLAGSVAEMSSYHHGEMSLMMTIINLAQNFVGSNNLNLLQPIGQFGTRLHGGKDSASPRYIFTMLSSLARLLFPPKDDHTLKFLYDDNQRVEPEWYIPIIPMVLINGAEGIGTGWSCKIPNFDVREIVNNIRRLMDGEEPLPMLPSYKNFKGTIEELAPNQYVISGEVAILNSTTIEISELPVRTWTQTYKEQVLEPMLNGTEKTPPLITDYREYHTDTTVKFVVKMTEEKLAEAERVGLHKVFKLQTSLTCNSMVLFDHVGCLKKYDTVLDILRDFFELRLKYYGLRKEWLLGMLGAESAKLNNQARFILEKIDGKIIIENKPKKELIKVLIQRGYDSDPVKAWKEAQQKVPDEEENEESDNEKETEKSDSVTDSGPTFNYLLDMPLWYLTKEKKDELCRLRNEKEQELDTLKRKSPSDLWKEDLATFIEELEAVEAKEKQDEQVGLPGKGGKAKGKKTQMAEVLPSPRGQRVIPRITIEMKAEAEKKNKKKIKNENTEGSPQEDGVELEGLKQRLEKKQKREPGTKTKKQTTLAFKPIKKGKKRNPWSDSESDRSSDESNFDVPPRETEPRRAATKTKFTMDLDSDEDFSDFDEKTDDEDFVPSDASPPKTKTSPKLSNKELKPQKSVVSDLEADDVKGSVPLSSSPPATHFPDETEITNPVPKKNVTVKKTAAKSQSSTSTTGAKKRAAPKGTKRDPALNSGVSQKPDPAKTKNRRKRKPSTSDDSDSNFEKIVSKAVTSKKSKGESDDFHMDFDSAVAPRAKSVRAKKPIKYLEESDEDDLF
Molecule,"EC50 ([1]; read-out: ED50, toxicity towards HT-29 cells, natural samples) [nM]","IC50 ([1]; read-out: IC50, cytotoxicity toward HT-29 cells) [nM]",solubility in aqueous solutions [2],topo IIα inhibition (in words) (topo IIα),effect on PL-C-induced p65 phosphorylation (NF-κB p65),effect on PL-C-induced IFN-γ secretion (human primary NK cells)
"COc1cc2c(O[C@@H]3OC[C@H](OC(C)=O)[C@H](OC(C)=O)[C@H]3OC(C)=O)c3c(c(-c4ccc5c(c4)OCO5)c2cc1OC)C(=O)OC3 [Compound 7, 7-O-((2,3,4-tri-O-acetyl)-α-L-arabinopyranosyl) diphyllin]",110,110,insoluble in aqueous solutions,not topo Ha inhibitors; also recorded: not topo IIα inhibitors,–,–
"N-tosyl-L-phenylalanine chloromethyl ketone [TPCK, reference compound]",–,–,–,–,inhibited PL-C-induced p65 phosphorylation,inhibition of PL-C-induced IFN-γ secretion
